{
  "source": "patent US11007178B2",
  "about": "“Methods and uses of Nampt activators for treatment of diabetes, cardiovascular diseases, and symptoms thereof” (University of South Florida, priority 2016, dated 2021)",
  "key": {"diabetic mice": {"system": "diabetic mice", "assay": "Insulin tolerance test (ITT)", "type": "in vivo", "conditions": "about 10 mg/Kg daily, 4 weeks, insulin 5 U/Kg i.v.", "description": "Diabetic mice were utilized and treated with P7C3 for 4 weeks with a daily dose of about 10 mg/Kg P7C3 or vehicle. Thereafter, ITT (insulin tolerance test) was performed by injecting insulin 5 U/Kg body weight i.v. Blood glucose levels were monitored as shown in FIGS. 9A-9B."}, "db/db mice [1]": {"system": "db/db mice", "assay": "Echocardiography, cardiomyopathy and cardiac performance", "type": "in vivo", "excerpt": "A similar increase (p<0.05) in pulmonary VTI was also noted in the 20 week db/db mice when compared with WT controls. […] A similar increase in M-mode short axis measurements in 20 week db/db was also noted in left ventricular internal dimension (LVID) at both systole and diastole. […] This increase in LVID is indicative of increased heart size when compared with Wt controls."}, "db/db mice [2]": {"system": "db/db mice", "assay": "ECG, cardiac electrical abnormalities", "type": "in vivo", "conditions": "20 week old, vs vehicle treated db/db", "description": "(§1) To determine the effect of the Nampt activator on blood sugar control and cardiac electrical activity in diabetics, we examined the effects of P7C3,in a diabetic mouse model (db/db mice). Briefly, wild-type or db/db mice were treated with a Nampt activator (P7C3) or control. The Nampt activator or control was administered daily via intraperitoneal (i.p.) injection at about 10 mg/kg."}, "db/db mice [3]": {"system": "db/db mice", "assay": "NADH/NAD ratio in diabetic model", "type": "in vivo", "conditions": "4 weeks treatment, vs vehicle"}, "wild-type C57 hearts": {"system": "wild-type C57 hearts", "assay": "Langendorff myocardial ischemia-reperfusion injury, wild-type hearts", "design": "species or system mouse", "conditions": "10 μM, 45 min ischemia, 60 min reperfusion, vs vehicle", "description": "Following a 45 minutes of ischemia in the wild type mouse hearts we utilized P7C3 and allowed reperfusion for first 30 minutes of reperfusion period during a 60 minutes reperfusion phase. […] Red portion of the stain in FIGS. 12A and 12C can indicate viable tissue, where as white or pale colored areas are infarcted areas. Qualification for the infract size is depicted in the accompanying bar graphs in each panel. ***p<0.0001, **p<0.001, vehicle vs. P7C3 in each group."}, "[4]": {"system": "pancreatic islet β-cells of diabetic mice", "assay": "Immunohistochemical staining for insulin in pancreatic beta-islets", "type": "in vivo", "conditions": "vs vehicle"}, "db/db mice [5]": {"system": "db/db mice", "assay": "Intra-peritoneal glucose tolerance test (IPGTT)", "type": "in vivo", "conditions": "10 mg/kg, 4 weeks, vs vehicle", "description": "The diabetic model was treated with a vehicle or P7C3 for 4 weeks. Then a glucose tolerance test was conducted.\nas §1\nAn insulin tolerance test was also performed after 4 weeks of Nampt activator treatment as previously described."}, "[6]": {"system": "pancreatic islet β-cells of diabetic mice", "assay": "Pancreatic islets and beta cells, Gomori staining", "type": "in vivo", "conditions": "10 mg/Kg daily, 4 weeks, vs vehicle", "description": "Additionally diabetic mice were treated with P7C3 for 4 weeks with daily dose of 10 mg/Kg with P7C3 or vehicle. Thereafter, the pancreas was collected at necropsy and cryosectioned, the cross sections were stained for visualizing the damage of β-cells in diabetes and rescue by P7C3. […] P<0.01. ** indicates […] between Vehicle and P7C3 groups and *** indicates P<0.001 Vehicle and P7C3 groups as determined by a one-way ANOVA followed by Tukey test."}, "db/db mice [7]": {"system": "db/db mice", "assay": "Blood sugar level in diabetic mouse model over 4 weeks", "type": "in vivo", "conditions": "10 mg/kg i.p. daily", "description": "as §1"}, "db/db mice [8]": {"system": "db/db mice", "assay": "Serum insulin levels by ELISA", "type": "in vivo", "conditions": "diabetic mice, about 10 mg/kg i.p., 4 weeks, vs vehicle", "description": "A Nampt activator, P7C3, was administered and various effects were evaluated. […] Briefly, the dose of P7C3 was about 10 mg/kg and administered i.p. to diabetic mice and the effect on serum insulin, insulin tolerance, blood glucose, and pancreatic beta cell number and insulin granulation in the islets of a diabetic model pancreas. The serum from P7C3 or vehicle treated diabetic mice and measured the insulin levels by ELISA assay."}, "H9C2 cardiomyoblasts": {"system": "H9C2 cardiomyoblasts", "assay": "NAD levels in H9C2 cardiomyoblasts", "type": "cell-based", "conditions": "H9C2, 10 μM, vs vehicle (1% DMSO) or FK866 (10 nM)", "excerpt": "Nampt, a rate-limiting enzyme, controls the level of NAD+ and protects the heart by stimulating SIRT1. […] The data presented in this Example coupled with previous evidence of the ability of P7C3 to bind and activate Nampt unequivocally indicate that the rescue of arrythmogenic and myopathy changes noted in P7C3 treated db/db mice are in due to activation of Nampt activation, NAD elevation, and stimulation of Nampt-SIRT1 axis."}, "diabetic hearts (db/db)": {"system": "diabetic hearts (db/db)", "assay": "Langendorff myocardial ischemia-reperfusion injury, diabetic hearts", "design": "species or system mice", "conditions": "4 week treated diabetic hearts, 45 min ischemia, 60 min reperfusion, vs vehicle"}, "Wt mouse heart": {"system": "Wt mouse heart", "assay": "Ex vivo lactate perfusion of heart, ventricular arrhythmia", "conditions": "2 out of 5 mice, control 0%", "excerpt": "Cardiac elevation of NADH through ex vivo lactate perfusion of Wt mouse heart increases the incidence of ventricular arrhythmia by 40% (2 out of 5 mice) (FIGS. 5A and 5B)."}, "[9]": {"conditions": "diabetic mice, 4 week treatment"}},
  "data": [
    {"compound": "OC(CNc1ccccc1)Cn1c2ccc(Br)cc2c2cc(Br)ccc21", "note": "(stereo not shown) [P7C3]", "values": [
      {"measurement": "insulin sensitivity (insulin tolerance test, blood glucose)", "setting": "diabetic mice", "value": "improved insulin sensitivity"},
      {"measurement": "cardiomyopathy", "setting": "db/db mice [1]; 4 week treatment", "value": "partial rescue"},
      {"measurement": "IVRT (isovolumic relaxation time)", "setting": "db/db mice [1]; P7C3 treated diabetic mice", "value": "improvement in cardiac performance"},
      {"measurement": "MPI (myocardial performance index)", "setting": "db/db mice [1]; P7C3 treated diabetic mice", "value": "improvement in cardiac performance"},
      {"measurement": "LV mass", "setting": "db/db mice [1]; db/db mice", "value": "smaller increase"},
      {"measurement": "aortic VTI", "setting": "db/db mice [1]; db/db mice, 4-week treatment", "value": "much less of an increase"},
      {"measurement": "pulmonary VTI", "setting": "db/db mice [1]; db/db mice, 4-week treatment", "value": "much less of an increase"},
      {"measurement": "left ventricular internal dimension (LVID)", "setting": "db/db mice [1]; db/db mice, particularly at the diastole", "value": "much less increase"},
      {"measurement": "% ejection fraction", "setting": "db/db mice [1]; [9]", "value": "significantly (p<0.05) decreased"},
      {"measurement": "% fractional shortening", "setting": "db/db mice [1]; [9]", "value": "significantly (p<0.05) decreased"},
      {"measurement": "QRS interval", "setting": "db/db mice [2]", "value": "significantly reduced (p<0.001) back to Wt levels"},
      {"measurement": "QT interval", "setting": "db/db mice [2]", "value": "significantly reduced (p<0.001) back to Wt levels"},
      {"measurement": "QTc interval", "setting": "db/db mice [2]", "value": "significantly reduced (p<0.001) back to Wt levels"},
      {"measurement": "NADH/NAD ratio", "setting": "db/db mice [3]", "value": "significantly attenuated"},
      {"measurement": "protection from myocardial ischemia-reperfusion injury (infarct size)", "setting": "wild-type C57 hearts", "value": "cardioprotective effect"},
      {"measurement": "insulin positive beta-cells per islet area", "setting": "[4]", "value": "increased insulin production"},
      {"measurement": "glucose tolerance after 2 hour glucose load", "setting": "db/db mice [5]", "value": "increased glucose tolerance"},
      {"measurement": "insulin release after glucose load", "setting": "db/db mice [5]", "value": "significantly (P<0.001) increased"},
      {"measurement": "beta cells per section", "setting": "[6]", "value": "significant improvement"},
      {"measurement": "number of beta cells per islet", "setting": "[6]", "value": "improved"},
      {"measurement": "number of pancreatic islets in a unit area of the pancreas", "setting": "[6]", "value": "improved"},
      {"measurement": "net reduction in blood sugar levels", "setting": "db/db mice [7]", "value": 173.2, "unit": "mg/dL"},
      {"measurement": "blood sugar level", "setting": "db/db mice [7]; at 4 weeks, vehicle db/db 467.5±34.2, wild type 209.8±6.1", "value": "214.5 ± 16.9", "unit": "mg/dL"},
      {"measurement": "serum insulin levels", "setting": "db/db mice [8]", "value": "increased"},
      {"measurement": "NAD levels", "setting": "H9C2 cardiomyoblasts", "value": "significantly (P<0.01) increases"},
      {"measurement": "protection from myocardial ischemia-reperfusion injury (infarct size)", "setting": "diabetic hearts (db/db)", "value": "cardioprotective effect"}
    ]},
    {"compound": "NC(=O)c1ccc[n+]([C@@H]2O[C@H](COP(=O)([O-])O)[C@@H](O)[C@H]2O)c1", "note": "[NMN, nicotinamide mononucleotide, reference compound]", "values": [
      {"measurement": "NAD levels", "setting": "H9C2 cardiomyoblasts", "value": "significantly (P<0.01) increases"}
    ]},
    {"compound": "lactate", "values": [
      {"measurement": "incidence of ventricular arrhythmia", "setting": "Wt mouse heart", "value": 40, "unit": "%"}
    ]}
  ]
}
